{
  "source": "ChEMBL document CHEMBL5096164",
  "about": "“In Vivo Profiling of a Natural Alkaloid, Anatabine, in Rodents: Pharmacokinetics and Anti-Inflammatory Efficacy” (J Nat Prod, 2021)",
  "key": {"in vivo": {"test": "in vivo", "settings": "rat, plasma"}, "[1]": {"test": "Half life in mouse plasma"}},
  "data": [
    {"smiles": "CN1CCC[C@H]1c1cccnc1", "note": "[NICOTINE]", "values": [
      {"measurement": "half-life", "setting": "in vivo", "value": 54, "unit": "min"},
      {"measurement": "half-life", "setting": "[1]", "value": 6, "unit": "min"}
    ]}
  ]
}
